Source: patent US9040717B2, “Pyrazole-amide compounds and pharmaceutical use thereof” (JAPAN TOBACCO INC., priority 2013, dated 2015)

Target: hERG current in hERG-transfected HEK293 cells (Homo sapiens (Human), UniProt Q12809)
Assay: hERG whole cell patch clamp test
Format: cell-based
Details: for IC50: whole cell patch clamp
Description: Using human ether-a-go-go related gene (hERG)-transfected HEK293 cells (Cytomyx Limited), an influence on hERG current was examined according to the whole cell patch clamp technique. The hERG-transfected HEK293 cells were passaged using a CO2 incubator (BNA-111, TABAI ESPEC CORP.) under the set conditions of 37° C., 5% CO2, saturated humidity. Culture containers used were Collagen Type I Coated 75 cm^2 flask (4123-010, AGC TECHNO GLASS CO., Ltd.) and Collagen Type I Coated 35 mm culture dish (4000-010, AGC TECHNO GLASS CO., Ltd.). The culture medium used was E-MEM (Eagle Minimum Essential Medium (Earle's Salts, Nikken biomedical laboratory) added with 10% FCS (Fetal calf serum, BioWest, L.L.C.) and 1% MEM Non-Essential Amino Acids Solution (NEAA, Invitrogen Corporation). Geneticin for the selection of hERG gene expressing cells was added thereto to a concentration of 400 μg/mL. As the cells for the measurement, 3×10^4 hERG-transfected HEK293 cells were plated on a 35 mm culture dish 4 to 7 days before measurement of the hERG current. The culture dish produced for the measurement contained the above-mentioned culture medium without geneticin (Invitrogen Corporation).
The highest evaluation concentration of each compound was determined from the highest concentration at which precipitation was not found in the standard extracellular fluid (NaCl: 140 mmol/L, KCl: 2.5 mmol/L, MgCl2:2 mmol/L, CaCl2: 2 mmol/L, HEPES: 10 mmol/L, glucose: 10 mmol/L (adjusted to pH 7.4 with Tris-base)). As the application method, each solution to be applied was ejected from a Y-tube having a tip diameter of about 0.25 mm, which was adjacent (about 2 mm) to the cells, and applied to the cells. The ejection rate was about 0.4 mL/min.
The experiment was performed at room temperature under a phase contrast microscope. The 35 mm culture dish plated with the cells was set on a measurement apparatus, and the standard extracellular fluid was continuously applied to the cells from the Y-tube. A glass electrode for the measurement was filled with an intracellular fluid (Potassium Gluconate: 130 mmol/L, KCl: 20 mmol/L, MgCl2: 1 mmol/L, ATP-Mg: 5 mmol/L, EGTA: 3.5 mmol/L, HEPES: 10 mmol/L (adjusted to pH 7.2 with Tris-base)). A conventional whole cell patch clamp method was applied to the cells, and the maintenance electric potential was set to −80 mV. Under a fixed electric potential, the whole cell current was amplified by an amplifier for patch clamp (AXOPATCH-200B, Axon Instruments, Inc.), and the data was loaded into a computer (IMC-P642400, Intermedical Co., Ltd.) using a data acquisition analysis software (pCLAMP 9.2, Axon Instruments, Inc.).
The measurement of the hERG current was performed in the following two steps. In both cases, the hERG current was initiated by giving a command potential (maintenance electric potential −80 mV, prepulse +20 mV, 1.5 sec, test-pulse −50 mV, 1.5 sec).
Step (1): The above-mentioned command potential was given at 0.1 Hz for 2 min.
Step (2): The above-mentioned command potential was subjected to P/3 subtraction of pCLAMP 9.2 to remove leak current. This was repeated three times and an average thereof was taken as hERG current.
Subsequent to step (1), Step (2) was performed (about 3 min), and the maximum tail current obtained by applying a test-pulse to the hERG current obtained by the method of step (2) was taken as hERG current value. Hereafter, the operations of (1) and (2) were alternately repeated until completion of the experiment and the hERG current value was measured.
Stable hERG current value was recorded three times (about 10 min), and the standard extracellular fluid was instantaneously exchanged with each application fluid. The hERG current value was measured three times (about 10 min) in the same manner during perfusion of the application fluid, and the current value obtained by the 3rd measurement was taken as hERG current value after perfusion of the application fluid. […]

hERG current in hERG-transfected HEK293 cells, sequence (Q12809 whole entry): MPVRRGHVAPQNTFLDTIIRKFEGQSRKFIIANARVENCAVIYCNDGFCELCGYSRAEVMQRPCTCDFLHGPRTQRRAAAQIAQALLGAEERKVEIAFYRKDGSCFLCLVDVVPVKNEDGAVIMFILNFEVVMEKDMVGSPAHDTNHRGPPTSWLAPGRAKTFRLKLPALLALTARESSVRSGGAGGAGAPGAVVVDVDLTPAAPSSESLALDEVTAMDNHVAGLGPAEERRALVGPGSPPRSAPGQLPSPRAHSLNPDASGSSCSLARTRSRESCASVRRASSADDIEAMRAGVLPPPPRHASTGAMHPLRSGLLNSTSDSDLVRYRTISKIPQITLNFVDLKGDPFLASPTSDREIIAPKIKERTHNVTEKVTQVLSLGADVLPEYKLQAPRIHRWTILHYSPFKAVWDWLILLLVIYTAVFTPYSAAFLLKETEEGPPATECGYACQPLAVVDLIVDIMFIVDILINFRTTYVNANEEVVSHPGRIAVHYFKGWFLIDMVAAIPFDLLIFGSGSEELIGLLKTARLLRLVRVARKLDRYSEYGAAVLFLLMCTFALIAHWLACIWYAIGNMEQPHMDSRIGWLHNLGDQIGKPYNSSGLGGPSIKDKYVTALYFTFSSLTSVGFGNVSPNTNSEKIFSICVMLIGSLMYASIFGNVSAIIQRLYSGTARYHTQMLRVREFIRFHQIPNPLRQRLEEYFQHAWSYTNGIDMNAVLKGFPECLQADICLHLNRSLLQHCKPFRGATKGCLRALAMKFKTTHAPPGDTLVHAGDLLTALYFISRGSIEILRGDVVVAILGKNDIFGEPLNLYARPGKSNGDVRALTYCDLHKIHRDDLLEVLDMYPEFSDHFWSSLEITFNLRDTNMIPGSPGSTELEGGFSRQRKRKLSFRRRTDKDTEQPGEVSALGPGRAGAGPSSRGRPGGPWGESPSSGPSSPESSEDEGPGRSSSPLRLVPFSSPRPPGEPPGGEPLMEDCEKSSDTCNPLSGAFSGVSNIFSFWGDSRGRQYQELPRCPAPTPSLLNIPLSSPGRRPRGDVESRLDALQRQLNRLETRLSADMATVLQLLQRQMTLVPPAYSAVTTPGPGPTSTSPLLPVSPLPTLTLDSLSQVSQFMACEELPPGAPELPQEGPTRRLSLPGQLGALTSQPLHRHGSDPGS

CC(C)(O)CCOc1cc(-c2cnn(C(C)(C)C(N)=O)c2)c2c(c1)[C@@](O)(C(F)(F)F)c1ccccc1-2 [Compound (2), 2-{4-[(9R)-9-hydroxy-2-(3-hydroxy-3-methylbutyloxy)-9-(trifluoromethyl)-9H-fluoren-4-yl]-1H-pyrazol-1-yl}-2-methylpropanamide]
hERG current Inhibition rate (%) (30 μmol/L): 24.4%
IC50: > 30 µM

CC(C)(O)CCCOc1cc(-c2cnn(C(C)(C)C(N)=O)c2)c2c(c1)[C@@](O)(C(F)(F)F)c1ccccc1-2 [Compound (3), 2-{4-[(9R)-9-hydroxy-2-(4-hydroxy-4-methylpentyloxy)-9-(trifluoromethyl)-9H-fluoren-4-yl]-1H-pyrazol-1-yl}-2-methylpropanamide]
hERG current Inhibition rate (%) (30 μmol/L): 27.3%
IC50: > 30 µM

NC(=O)Cn1cc(-c2cc(OCCC34CC5CC(CC(O)(C5)C3)C4)cc3c2-c2ccccc2[C@]3(O)C(F)(F)F)cn1 [Compound (A), 2-(4-{(9R)-9-Hydroxy-2-[2-(3-hydroxyadamantan-1-yl)ethoxy]-9-(trifluoromethyl)-9H-fluoren-4-yl}-1H-pyrazol-1-yl)acetamide]
hERG current Inhibition rate (%) (10 μmol/L): 11.8%

Cn1cc(-c2cc(OCC(C)(C)O)cc3c2-c2ccccc2[C@]3(O)C(F)(F)F)cn1 [Compound (B), (9R)-2-(2-Hydroxy-2-methylpropoxy)-4-(1-methyl-1H-pyrazol-4-yl)-9-(trifluoromethyl)-9H-fluoren-9-ol]
hERG current Inhibition rate (%) (1 μmol/L): 17.4%
hERG current Inhibition rate (%) (10 μmol/L): 72.9%
